Reference: article PMC8151276, “An Integrated Approach toward NanoBRET Tracers for Analysis of GPCR Ligand Engagement” (Molecules, 2021)

Assays:
CCR8 = target: T1, CCR8 (Homo sapiens, UniProt P51685); assay: NanoBRET screen HiBiT-CCR8 in HEK293; type: binding
T1 construct: purchased Promega (in-house HiBiT-GPCR construct library, NanoBRET)
Method: (§1) Each tracer candidate was screened across the entire library of HiBiT-GPCR constructs using NanoBRET as the detection modality. As depicted in Figure 4A, the specificity of interactions was evaluated through decrease in BRET due to competitive displacement of a bound tracer by excess parental compound. Each tracer was analyzed for binding to each HiBiT-GPCR fusion in the absence and in the presence of competing parental compound. Briefly, HEK293 cells were transfected with HiBiT-GPCR constructs diluted into promoterless DNA to reduce expression and maximize translocation to the cell surface. Each tracer candidate was then screened at concentrations of 1 μM and 0.1 μM across cells expressing these fusions. Cells were treated for 1.5 h with tracer either alone or in the presence of 20 μM competing parental compound (i.e., control). BRET was measured upon addition of purified LgBiT and subsequent complementation with HiBiT genetically fused to a GPCR. The specificity of interactions was assessed through a decrease in BRET signal due to competitive displacement of the bound tracer. To further gauge the robustness of these interactions, the fold response over the control (i.e., BRETtracer/BRETcontrol) was calculated. We chose a 1.5-fold response, which translates to ≥7-fold signal over noise as the minimal threshold required to score an interaction as positive. […]. Below we highlight the screening results obtained for our exemplary fluorescent tracers based on Clozapine, Amitriptyline and AZD1283.
(§2) HiBiT-GPCR DNA constructs were diluted in 10 mM Tris pH 8 to a final concentration of 0.01 μg/μL, arrayed in 96-well plates and stored at −20 °C. For transfection, HEK293 cells were suspended in Opti-MEM (without phenol red) supplemented with 2% fetal bovine serum (Seradigm) and 100 units/mL penicillin–streptomycin (Gibco) at a final concentration of 220,000 cells/mL and dispensed into white 96-well plates at 90 μL/well. Subsequent transfections and screens were carried using an Agilent Bravo Automated Liquid Handling Platform. First, the 96-well HiBiT DNA arrays were diluted 25-fold in Opti-MEM (without serum or phenol red) to a final concentration of 0.0004 μg/μL and 20 μL of the diluted DNAs were transferred into new 96-well plates. Next, promoterless carrier DNA (1 μg/μL) was diluted 25-fold (0.04 μg/μL) and then dispensed into the diluted arrays at 20 μL/well. Following brief mixing, Viafect transfection reagent (Promega) diluted 16-fold into Opti-MEM was dispensed into the plates at 40 μL/well. After mixing by pipetting, plates were incubated for 10 min on the pipetting station deck. The DNA-transfection reagent complexes were then added to plates containing cells. To facilitate the screen, 10 μL of DNA-transfection reagent complexes were added in duplicates to the top 4 and bottom 4 rows, resulting in two identical 48-well arrays per plate. Plates with transfected cells were incubated for 18–20 h at 37 °C/5% CO2. A screen of each tracer across the entire library using two different concentrations requires duplicate plates of transfected cells. Depending on the number of tracers being screened, transfections can be scaled up using the same ratios. The next day, for each tracer, four 20× screening solutions in tracer dilution buffer (Promega) were prepared: two duplicates at final concentration of 20 μM and two duplicates at a final concentration of 2 μM. A competing unmodified compound was added to one of each duplicate at a final concentration of 400 μM. The four resulting solutions were diluted 4-fold in Opti-MEM without serum or phenol red to generate 5× solutions (5 µM and 0.5 µM tracer +/− 100 μM competing compound). To screen the library, a BioTek MultiFlo FX liquid dispenser was used to dispense 22.5 µL of tracer solution to the top 4 rows and 22.5 µL tracer + competing compound solution to the 4 bottom rows. Plates were briefly mixed on an orbital shaker and incubated for 1.5 h at room temperature. […]

ACKR3 = target: T2, ACKR3 (Homo sapiens, UniProt P25106); assay: NanoBRET screen HiBiT-ACKR3 in HEK293; type: binding
T2 construct: purchased Promega (in-house HiBiT-GPCR construct library, NanoBRET)
T2 sequence (P25106 whole entry): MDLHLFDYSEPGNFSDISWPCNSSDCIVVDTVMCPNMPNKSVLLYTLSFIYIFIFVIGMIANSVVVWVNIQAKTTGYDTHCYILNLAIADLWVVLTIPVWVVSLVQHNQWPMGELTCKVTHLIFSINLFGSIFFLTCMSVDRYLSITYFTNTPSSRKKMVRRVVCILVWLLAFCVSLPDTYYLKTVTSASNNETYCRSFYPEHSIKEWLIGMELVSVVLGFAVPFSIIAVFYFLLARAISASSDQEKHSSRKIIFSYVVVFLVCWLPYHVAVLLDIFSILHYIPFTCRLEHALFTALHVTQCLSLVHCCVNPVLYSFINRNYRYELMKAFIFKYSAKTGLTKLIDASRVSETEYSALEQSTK
Method: as §1, §2

[1] = tracer at 0.1μM, listed as amitriptyline-b-2-NB590
[2] = tracer at 1μM, listed as amitriptyline-b-2-NB590

T1 sequence (P51685 whole entry): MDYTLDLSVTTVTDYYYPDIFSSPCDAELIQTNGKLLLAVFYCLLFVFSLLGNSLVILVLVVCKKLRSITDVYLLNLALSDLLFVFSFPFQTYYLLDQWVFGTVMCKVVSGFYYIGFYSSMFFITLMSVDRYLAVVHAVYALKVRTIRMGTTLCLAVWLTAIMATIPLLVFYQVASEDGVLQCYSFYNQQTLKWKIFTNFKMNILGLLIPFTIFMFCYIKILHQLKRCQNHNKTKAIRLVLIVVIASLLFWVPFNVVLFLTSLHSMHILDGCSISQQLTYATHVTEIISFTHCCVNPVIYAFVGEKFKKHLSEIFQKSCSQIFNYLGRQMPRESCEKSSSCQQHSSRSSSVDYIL

Structure (SMILES): CCOC(=O)c1cc(C#N)c(N2CCC(C(=O)NS(=O)(=O)Cc3ccccc3/C=C/C(=O)NCCNC(=O)CCc3ccc4n3[B-](F)(F)[N+]3=C(c5ccc[nH]5)C=CC3=C4)CC2)nc1C [AZD1283-1-NB590]
- NanoBRET Fold Response (CCR8; CCR8, 0.1μM): 1.04
- NanoBRET Fold Response (CCR8; CCR8, 1μM): 1.18
- NanoBRET Fold Response (ACKR3; ACKR3, 0.1μM): 1.06
- NanoBRET Fold Response (ACKR3; ACKR3, 1μM): 1.19

Structure (SMILES): N#CN=C(NCCCOc1cccc(CN2CCCCC2)c1)NCCNC(=O)CCOCCOCCOCCOCCNC(=O)CCc1ccc2n1[B-](F)(F)[N+]1=C(c3ccc[nH]3)C=CC1=C2 [Aminopotentidine-2-NB590]
- NanoBRET Fold Response (CCR8; CCR8, tracer 0.1μM): 0.99
- NanoBRET Fold Response (CCR8; CCR8, tracer 1μM): 0.89
- NanoBRET Fold Response (ACKR3; ACKR3, tracer 0.1μM): 0.99
- NanoBRET Fold Response (ACKR3; ACKR3, tracer 1μM): 1.08

Structure (SMILES): CN(C)CCC=C1c2ccccc2CCc2ccc(C(=O)NCCNC(=O)CCOCCOCCOCCOCCNC(=O)CCc3ccc4n3[B-](F)(F)[N+]3=C(c5ccc[nH]5)C=CC3=C4)cc21 [Amitriptyline-a-2-NB590]
- NanoBRET Fold Response (CCR8; tracer at 0.1μM): 0.94
- NanoBRET Fold Response (CCR8; tracer at 1μM): 0.97
- NanoBRET Fold Response (ACKR3; tracer at 0.1μM): 1.15
- NanoBRET Fold Response (ACKR3; tracer at 1μM): 0.99

Structure (SMILES): CN(C)CCC=C1c2ccccc2CCc2ccc(C(=O)NCCNC(=O)CCOCCOCCOCCOCCNC(=O)CCc3ccc4n3[B-](F)(F)[N+]3=C(c5ccc[nH]5)C=CC3=C4)cc21 [Amitriptyline-b-2-NB590]
- NanoBRET Fold Response (CCR8; [1]): 1.03
- NanoBRET Fold Response (CCR8; [2]): 1.03
- NanoBRET Fold Response (ACKR3; [1]): 1.17
- NanoBRET Fold Response (ACKR3; [2]): 1.07

Structure (SMILES): CN(CCC=C1c2ccccc2CCc2ccccc21)C(=O)CCOCCOCCOCCOCCNC(=O)CCc1ccc2n1[B-](F)(F)[N+]1=C(c3ccc[nH]3)C=CC1=C2 [Amitriptyline-e-2-NB590]
- NanoBRET Fold Response (CCR8; tracer at 1μM): 0.79
- NanoBRET Fold Response (ACKR3; tracer at 1μM): 0.94

Structure (SMILES): COc1ccc2c(n1)c(CCNC(C)=O)cn2CCNC(=O)CCc1ccc2n1[B-](F)(F)[N+]1=C(c3ccc[nH]3)C=CC1=C2 [Azamelatonin-1-NB590]
- NanoBRET Fold Response (CCR8; 0.1μM tracer): 1.13
- NanoBRET Fold Response (CCR8; 1μM tracer): 1.09
- NanoBRET Fold Response (ACKR3; 0.1μM tracer): 0.84
- NanoBRET Fold Response (ACKR3; 1μM tracer): 0.95

Structure (SMILES): COc1ccc2[nH]c(-c3ccc(CNC(=O)CCOCCOCCOCCOCCNC(=O)CCc4ccc5n4[B-](F)(F)[N+]4=C(c6ccc[nH]6)C=CC4=C5)cc3)c(CCNC(C)=O)c2n1 [AzomelatoninICO9-2-NB590]
- NanoBRET Fold Response (CCR8; 0.1μM tracer): 0.68
- NanoBRET Fold Response (CCR8; 1μM tracer): 1.10
- NanoBRET Fold Response (ACKR3; 0.1μM tracer): 1.40
- NanoBRET Fold Response (ACKR3; 1μM tracer): 0.83

Structure (SMILES): O=C(CCOCCOCCOCCOCCNC(=O)CCc1ccc2n1[B-](F)(F)[N+]1=C(c3ccc[nH]3)C=CC1=C2)NCCCN1CCN(C2=Nc3cc(Cl)ccc3Nc3ccccc32)CC1 [Clozapine-a-2-NB590]
- NanoBRET Fold Response (CCR8; CCR8, 0.1μM tracer): 1.02
- NanoBRET Fold Response (CCR8; CCR8, 1μM tracer): 0.93
- NanoBRET Fold Response (ACKR3; ACKR3, 0.1μM tracer): 1.05
- NanoBRET Fold Response (ACKR3; ACKR3, 1μM tracer): 1.06

Structure (SMILES): CN1CCN(C2=Nc3cc(Cl)ccc3Nc3ccc(CNC(=O)CCOCCOCCOCCOCCNC(=O)CCc4ccc5n4[B-](F)(F)[N+]4=C(c6ccc[nH]6)C=CC4=C5)cc32)CC1 [Clozapine-b-2-NB590]
- NanoBRET Fold Response (CCR8; CCR8, 0.1μM tracer): 0.88
- NanoBRET Fold Response (CCR8; CCR8, 1μM tracer): 0.89
- NanoBRET Fold Response (ACKR3; ACKR3, 0.1μM tracer): 0.95
- NanoBRET Fold Response (ACKR3; ACKR3, 1μM tracer): 1.05

Structure (SMILES): CN1CCN(C2=Nc3cc(Cl)ccc3N(CC(=O)NCCOCCOCCOCCOCCNC(=O)CCc3ccc4n3[B-](F)(F)[N+]3=C(c5ccc[nH]5)C=CC3=C4)c3ccccc32)CC1 [Clozapine-c-2-NB590]
- NanoBRET Fold Response (CCR8; CCR8, 0.1μM tracer): 0.97
- NanoBRET Fold Response (CCR8; CCR8, 1μM tracer): 0.96
- NanoBRET Fold Response (ACKR3; ACKR3, 1μM tracer): 0.92
